Legend:
HABP2 = HABP2 protein expression in EC by immunoblotting; type: cell-based, human; conditions: 100 nM HA, EC lysates, immunoblot
Description: Immunoblotting. Proteins in the EC lysates or mouse lung homogenates were solubilized in solubilization buffer, separated on SDS-PAGE, and analyzed by immunoblotting with specific antisera and HRP conjugated secondary antibody with enhanced chemiluminescence detection (Amersham Biosciences).
Treatment with LPS, low and high MW hyaluronan. EC were treated with 1.0 μg/ml LPS, 100 nM HMW-HA (˜1 million Daltons) or 100 nM LMW-HA (˜2,500 Daltons) for 24 hours and EC media and lysates were obtained.
Cell culture preparation and treatment. Human pulmonary microvascular EC (HPMVEC) (Cambrex), grown in EBM-2 complete medium (Cambrex) at 37° C. in a humidified atmosphere of 5% CO2, 95% air, with passages 6-10 used for experimentation will be treated with or without 1.0 μg/ml LPS, 100 nM HMW-HA and/or 100 nM LMW-HA in the presence or absence of exogenous purified recombinant HABP2 polyanion binding domain and/or C1INH (Novus Biologicals), HABP2 and/or C1INH overexpression vector or siRNA (scramble, HABP2, C1INH, PAR-1, PAR-2, PAR-3, PAR-4, tenascin-C or perlecan) or the potent hyaluronidase inhibitor, L-ascorbic acid 6-hexadecanoate (Botzki et al., 2004) (Sigma). Extracellular media and/or treated EC will either be analyzed for protein expression, HABP2 protease activity, hyaluronidase activity or Trans-endothelial Electrical Resistance (TER). […]

S1P1 and S1P3 Receptor = assay: Tyrosine/serine/threonine phosphorylation of S1P receptors; type: cell-based, human; conditions: 100 nM HA
Description: Determination of Tyrosine/Serine/Threonine Phosphorylation of the S1P1 and S1P3 Receptor—Immunoprecipitation of solubilized proteins in IP buffer B (see above) took place with either rabbit anti-S1P1 receptor or mouse anti-S1P3 receptor antibody, which was followed by SDS-PAGE in 4-15% polyacrylamide gels and transfer onto Immobilon™ membranes (Millipore Corp., Bedford, Mass.). Following blockage of nonspecific sites with 5% bovine serum albumin, the blots were incubated with either rabbit anti-S1P1 antibody, mouse anti-S1P3 antibody, mouse anti-phospho-tyrosine, rabbit anti-phospho-serine antibody or rabbit anti-phospho-threonine antibody, and then incubated with horseradish peroxidase (HRP)-labeled goat anti-rabbit or goat anti-mouse IgG. Enhanced chemiluminescence (Amersham Biosciences) for visualization of immunoreactive bands then took place.

[1] = system: CD44s, CD44v10, S1P1 and S1P3 receptors in lipid rafts; assay: CD44 isoform / S1P receptor recruitment and association in lipid raft (CEM) fractions; type: cell-based, human; conditions: for CD44 isoform association with S1P receptors in lipid rafts: 100 nM HA, immunoprecipitation from lipid raft fractions
Description: Lipid Raft Isolation—Caveolin-enriched microdomain known as lipid rafts were isolated from human lung EC as described (Singleton and Bourguignon, 2004; Singleton et al., 2005). Materials insoluble in Triton X-100-insoluble were mixed with 0.6 ml of cold 60% Optiprep™ and then overlaid with 0.6 ml of 40%-20% Optiprep™. The resulting gradients were then centrifuged (35,000 rpm) in SW60 rotor for 12 h at 4° C. and different fractions were collected and analyzed. In some cases, different fractions were analyzed for total cholesterol content using a cholesterol assay kit (Amplex Red™, Invitrogen (Molecular Probes), Eugene, Oreg.).
Immunoprecipitation and Immunoblotting—Cellular materials associated within the 20% Optiprep™ fractions (lipid raft fraction) were incubated with IP buffer A (50 mM HEPES (pH 7.5), 150 mM NaCl, 20 mM MgCl2, 1% Nonidet P-40 (NP-40), 0.4 mM Na3VO4, 40 mM NaF, 50 μM okadaic acid, 0.2 mM phenylmethylsulfonyl fluoride, 1:250 dilution of Calbiochem protease inhibitor mixture 3) or IP buffer B (50 mM HEPES (pH 7.5), 150 mM NaCl, 20 mM MgCl2, 1% Triton X-100, 0.1% SDS, 0.4 mM Na3VO4, 40 mM NaF, 50 μM okadaic acid, 0.2 mM phenylmethylsulfonyl fluoride, 1:250 dilution of Calbiochem protease inhibitor mixture 3) as indicated. The samples were then immunoprecipitated with anti-S1P1 receptor or anti-S1P3 receptor IgG followed by SDS-PAGE in 4-15% polyacrylamide gels, and transfer onto Immobilon™ membranes. Development occurred using specific primary and secondary antibodies. Enhanced chemiluminescence (Amersham Biosciences) for visualization of immunoreactive bands then took place.
Determination of Complex Formation between S1P1 Receptor/CD44s and S1P3 Receptor/CD44v10—EC monolayers were serum-starved for one hour, then treated with High or Low MW HA (100 nM) (5-30 min.) and solubilized in IP buffer A (see above). Following immunoprecipitation with either rabbit anti-S1P1 receptor or mouse anti-S1P3 receptor antibody, the samples were subjected to SDS-PAGE in 4-15% polyacrylamide gels and transfer onto Immobilon™ membranes (Millipore Corp., Bedford, Mass.). Nonspecific sites were then blocked with 5% bovine serum albumin, and the blots were then incubated with either rat anti-CD44 (IM-7, common domain) antibody, rabbit anti-S1P1 antibody or mouse anti-S1P3 antibody followed by incubation with horseradish peroxidase (HRP)-labeled goat anti-rabbit, goat anti-mouse or goat anti-rat IgG. Enhanced chemiluminescence (Amersham Biosciences) for visualization of immunoreactive bands then took place.

[2] = system: Human pulmonary artery EC; assay: Transendothelial electrical resistance (TER) of HA-treated EC monolayers, Example 1; type: cell-based; conditions: for change in transmonolayer electrical resistance (TER): 1 nM, 10 nM or 100 nM HA, serum starved EC; for effect of pretreatment of HA by boiling or proteinase K digestion on HA-induced EC TER: HA boiled or proteinase K digested; for effect of hyaluronidase SD treatment of HA on HA-induced EC TER: HA treated with hyaluronidase SD
Description: Measurement of TransEC Electrical Resistance (TER)—EC were grown to confluence in polycarbonate wells containing evaporated gold microelectrodes. TER measurements were performed using an electrical cell-substrate impedance sensing system (Applied Biophysics, Troy, N.Y.) as described (Garcia et al., 2001). TER values from each microelectrode were pooled at discrete time points and plotted versus time as the mean±S.E.

Substance | HABP2 protein expression in EC (HABP2; listed as low molecular weight (MW) hyaluronan) | S1P receptor phosphorylation (S1P1 and S1P3 Receptor) | recruitment of CD44s to the lipid raft fraction ([1]; 100 nM HA, 5, 15 or 30 min) | recruitment of CD44v10 to the lipid raft fraction ([1]; 100 nM HA, 5, 15 or 30 min) | CD44 isoform association with S1P receptors in lipid rafts [1] | change in transmonolayer electrical resistance (TER) [2] | effect of pretreatment of HA by boiling or proteinase K digestion on HA-induced EC TER [2] | effect of hyaluronidase SD treatment of HA on HA-induced EC TER ([2]; listed as Low MW HA) | HABP2 protein expression in EC (HABP2; listed as high MW hyaluronan) | effect of hyaluronidase SD treatment of HA on HA-induced EC TER ([2]; listed as High MW HA)
hyaluronan [LMW-HA, reference compound] | significantly enhanced | induced sequential AKT1-mediated S1P1 and Src/ROCK1/2-mediated S1P3 receptor phosphorylation/activation | rapidly (5 min.) recruit CD44s to the lipid raft fraction | robust but delayed recruitment of CD44v10 (after 15 min.) | induced an initial CD44s association with S1P1 which was followed by CD44v10 association with S1P3 receptor in lipid raft fractions | biphasic changes in TER with an initial rapid increase in barrier enhancement followed by significant and prolonged barrier disruption | little effect | blocked the effects of Low MW HA | – | –
hyaluronan [HMW-HA] | – | promoted AKT1-mediated threonine phosphorylation of S1P1 receptor | rapidly (5 min.) recruit CD44s to the lipid raft fraction | – | induced CD44s association in lipid rafts with S1P1 | gradual and sustained rise in transmonolayer electrical resistance (TER) in a dose-dependent fashion | little effect | – | reduced | blocked the effects of High MW HA

Reference: patent US20100249064A1, “METHODS AND COMPOSITIONS FOR TREATING DISEASES AND CONDITIONS INVOLVING HIGHER MOLECULAR WEIGHT HYALURONAN” (University of Chicago, priority 2007, published 2010)
